Assay [1] has as its target T1, PanZ (Escherichia coli, UniProt P37613, R73A).
T1 construct: PanZ(R73A)
Briefly: ITC. Type of assay: binding.

In assay [2] the target is T2, PanZ (Escherichia coli, UniProt P37613).
T2 construct: PanZ(WT)
Briefly: ITC; also […] Å crystal structure of the PanD–PanZ·AcCoA complex. Type of assay: binding.

SMILES strings stand for the structures.

T2 sequence (P37613 whole entry): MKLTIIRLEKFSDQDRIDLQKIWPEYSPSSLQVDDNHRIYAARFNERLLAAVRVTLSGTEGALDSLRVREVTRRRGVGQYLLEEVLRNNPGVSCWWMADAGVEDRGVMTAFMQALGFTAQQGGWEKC
T1 sequence (P37613 whole entry R73A): as the sequence (P37613 whole entry) above, with R73A counted along it

For the molecule `CC(=O)SCCNC(=O)CCNC(=O)[C@H](O)C(C)(C)COP(=O)(O)OP(=O)(O)OC[C@H]1O[C@@H](n2cnc3c(N)ncnc32)[C@H](O)[C@@H]1OP(=O)(O)O` [AcCoA], the Kd in assay [1] turned out to be 220 ± 30 µM; in assay [2], 0.524 ± 0.064 µM.

The record behind these values is paper PMC5724930 (Biochemistry, 2017).
